# Measurements published in US7674801B2 (AstraZeneca AB, priority 2006, dated 2010).
# Biological target: S. aureus (SAU) GyrB ATPase (Staphylococcus aureus, UniProt P0A0K8)
# Experiment: S. aureus GyrB ATPase inhibition, ammonium molybdate/malachite green phosphate detection assay
# Format: biochemical
# Settings: for inhibition at 12.5 µM: read-out: S. aureus (SAU) GyrB ATPase % Inhibition, compound concentration 12.5 μM
# Summary of the method: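 E. coli GyrA and S. aureus GyrB (1.25 nM each) with 500 μM ATP and 5 μg/ml sheared salmon sperm DNA in 50 mM Hepes pH 7.5, 8.0 mM MgCl2. Released phosphate detected with ammonium molybdate/malachite green at 650 nm; 2% DMSO as 0% and 2 μM novobiocin as 100% inhibition; IC50 from 10 concentrations.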
# Sequence of S. aureus (SAU) GyrB ATPase (P0A0K8 whole entry): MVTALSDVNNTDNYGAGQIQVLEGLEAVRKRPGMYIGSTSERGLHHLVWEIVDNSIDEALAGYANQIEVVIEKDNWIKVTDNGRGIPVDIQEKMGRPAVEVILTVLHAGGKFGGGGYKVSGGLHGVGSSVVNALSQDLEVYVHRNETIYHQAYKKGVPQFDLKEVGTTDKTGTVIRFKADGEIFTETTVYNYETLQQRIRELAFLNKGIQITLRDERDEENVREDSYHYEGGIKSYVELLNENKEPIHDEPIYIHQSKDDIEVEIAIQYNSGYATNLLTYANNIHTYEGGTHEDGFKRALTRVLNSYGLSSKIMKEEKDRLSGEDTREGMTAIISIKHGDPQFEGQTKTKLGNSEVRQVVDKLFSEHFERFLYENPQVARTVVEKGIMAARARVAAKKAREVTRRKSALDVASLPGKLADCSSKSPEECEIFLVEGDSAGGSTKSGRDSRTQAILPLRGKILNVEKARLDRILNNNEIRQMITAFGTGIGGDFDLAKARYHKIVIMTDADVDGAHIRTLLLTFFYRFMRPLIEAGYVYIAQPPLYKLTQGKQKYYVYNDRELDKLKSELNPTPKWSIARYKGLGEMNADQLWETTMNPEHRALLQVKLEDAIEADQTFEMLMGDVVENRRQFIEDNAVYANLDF
# Sequence of S. aureus (SAU) GyrB ATPase (P0AES4 whole entry, further chain): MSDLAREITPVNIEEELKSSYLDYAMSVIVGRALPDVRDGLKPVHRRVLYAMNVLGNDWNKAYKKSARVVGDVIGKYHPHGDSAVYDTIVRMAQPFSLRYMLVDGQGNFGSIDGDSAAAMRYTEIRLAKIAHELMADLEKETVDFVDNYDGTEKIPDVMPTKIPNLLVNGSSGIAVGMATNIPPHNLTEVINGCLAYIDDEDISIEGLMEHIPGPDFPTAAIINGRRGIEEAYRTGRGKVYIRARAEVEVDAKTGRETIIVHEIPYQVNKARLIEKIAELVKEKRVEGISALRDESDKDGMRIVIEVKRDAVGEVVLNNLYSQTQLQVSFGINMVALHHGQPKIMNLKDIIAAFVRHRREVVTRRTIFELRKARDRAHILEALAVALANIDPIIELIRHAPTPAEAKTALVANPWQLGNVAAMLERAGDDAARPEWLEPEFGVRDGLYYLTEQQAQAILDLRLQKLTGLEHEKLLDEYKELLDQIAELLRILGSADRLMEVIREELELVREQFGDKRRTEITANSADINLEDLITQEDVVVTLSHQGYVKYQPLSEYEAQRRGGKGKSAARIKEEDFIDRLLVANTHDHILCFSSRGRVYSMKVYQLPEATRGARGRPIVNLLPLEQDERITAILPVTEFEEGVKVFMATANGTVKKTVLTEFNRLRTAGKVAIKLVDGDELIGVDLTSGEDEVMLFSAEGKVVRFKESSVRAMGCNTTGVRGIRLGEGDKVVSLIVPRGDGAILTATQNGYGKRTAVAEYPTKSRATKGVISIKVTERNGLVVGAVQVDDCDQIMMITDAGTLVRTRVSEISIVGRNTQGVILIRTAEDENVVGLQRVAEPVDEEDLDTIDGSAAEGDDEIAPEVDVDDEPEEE
Structure (SMILES),inhibition at 12.5 µM [%],"S. aureus (SAU) GyrB ATPase % Inhibition (compound concentration 12.5 μM, 12.5 µM) [%]"
"CCNC(=O)Nc1cc(-c2nc(C(F)(F)F)cs2)c(-c2cncc(C(=O)NC3CCCC3)c2)cn1 [Example 125, N-Cyclopentyl-6′-{[(ethylamino)carbonyl]amino}-4′-[4-(trifluoromethyl)-1,3-thiazol-2-yl]-3,3′-bipyridine-5-carboxamide]",107,
"CCNC(=O)Nc1cc(-c2nc(C(F)(F)F)cs2)c(-c2cncc(C(=O)NC3CC3)c2)cn1 [Example 126, N-Cyclopropyl-6′-{[(ethylamino)carbonyl]amino}-4′-[4-(trifluoromethyl)-1,3-thiazol-2-yl]-3,3′-bipyridine-5-carboxamide]",96.2,
"CCNC(=O)Nc1cc(-c2nc(C(F)(F)F)cs2)c(-c2ncc(C(=O)NC)s2)cn1 [Example 127, 2-{6-{[(Ethylamino)carbonyl]amino}-4-[4-(trifluoromethyl)-1,3-thiazol-2-yl]pyridin-3-yl}-N-methyl-1,3-thiazole-5-carboxamide]",97,
"CCNC(=O)Nc1cc(-c2ccc(F)nc2)c(-c2cncc(C(N)=O)c2)cn1 [Example 128, 6′-{[(Ethylamino)carbonyl]amino}-6″-fluoro-3,3′:4′,3″-terpyridine-5-carboxamide]",91.5,
"CNC(=O)c1cncc(-c2cnc(NC(=O)NC(C)C)cc2-c2nc(C(F)(F)F)cs2)c1 [Example 129, 6′-{[(Isopropylamino)carbonyl]amino}-N-methyl-4′-[4-(trifluoromethyl)-1,3-thiazol-2-yl]-3,3′-bipyridine-5-carboxamide]",100,
"CCC(C)NC(=O)Nc1cc(-c2nc(C(F)(F)F)cs2)c(-c2cncc(C(=O)NC)c2)cn1 (stereo not drawn) [Example 130, 6′-{[(Sec-butylamino)carbonyl]amino}-N-methyl-4′-[4-(trifluoromethyl)-1,3-thiazol-2-yl]-3,3′-bipyridine-5-carboxamide]",98.7,
"CCNC(=O)Nc1nc(-c2cccc(C(=O)OC)c2)cs1 [Example 134, methyl 3-(2-{[(ethylamino)carbonyl]amino}-1,3-thiazol-4-yl)benzoate]",7.09,
"CCNC(=O)Nc1ncc(-c2nc3cccc(C(=O)OCC)c3s2)cn1 [Example 135, ethyl 2-(2-{[(ethylamino)carbonyl]amino}pyrimidin-5-yl)-1,3-benzothiazole-7-carboxylate]",0.52,
"CCNC(=O)Nc1ccc(-c2cccc3nc(C(=O)OCC)cn23)cn1 [Example 136, ethyl 5-(6-{[(ethylamino)carbonyl]amino}pyridin-3-yl)imidazo[1,2-a]pyridine-2-carboxylate]",61,
"CCNC(=O)Nc1cc(-c2cccc(C(=O)OCC)c2)ccn1 [Example 137, ethyl 3-(2-{[(ethylamino)carbonyl]amino}pyridin-4-yl)benzoate]",86.9,
"CCNC(=O)Nc1cc(-c2ccc(C(=O)OCC)cc2)ccn1 [Example 138, ethyl 4-(2-{[(ethylamino)carbonyl]amino}pyridin-4-yl)benzoate]",94.8,
"CCNC(=O)Nc1ccc(-c2ccc3nc(C)c(C(=O)OCC)n3c2)cn1 [Example 139, ethyl 6-(6-{[(ethylamino)carbonyl]amino}pyridin-3-yl)-2-methylimidazo[1,2-a]pyridine-3-carboxylate]",96.7,
"CCNC(=O)Nc1ccc(-c2nc(C(=O)N(C)C)c(C(=O)OCC)s2)cn1 [Example 140, ethyl 4-[(dimethylamino)carbonyl]-2-(6-{[(ethylamino)carbonyl]amino}pyridin-3-yl)-1,3-thiazole-5-carboxylate]",76.6,
"CCNC(=O)Nc1cc(-c2nc(C(C)(C)C)cs2)c(-c2cncc(C(=O)OCC)c2)cn1 [Example 141, ethyl 4′-(4-tert-butyl-1,3-thiazol-2-yl)-6′-{[(ethylamino)carbonyl]amino}-3,3′-bipyridine-5-carboxylate]",99.2,
"CCNC(=O)Nc1nc(-c2cccc(C(=O)O)c2)cs1 [Example 142, 3-(2-{[(ethylamino)carbonyl]amino}-1,3-thiazol-4-yl)benzoic acid]",0.68,
"CCNC(=O)Nc1cc(-c2cccc(C(=O)O)c2)ccn1 [Example 143, 3-(2-{[(ethylamino)carbonyl]amino}pyridin-4-yl)benzoic acid]",99.1,
"CCNC(=O)Nc1cc(-c2ccc(C(=O)O)cc2)ccn1 [Example 144, 4-(2-{[(ethylamino)carbonyl]amino}pyridin-4-yl)benzoic acid]",38.6,
"CCNC(=O)Nc1cc(-c2nc(C(C)(C)C)cs2)c(-c2cncc(C(=O)O)c2)cn1 [Example 145, 4′-(4-tert-butyl-1,3-thiazol-2-yl)-6′-{[(ethylamino)carbonyl]amino}-3,3′-bipyridine-5-carboxylic acid]",101,

Structure (SMILES),inhibition at 12.5 µM [%],"S. aureus (SAU) GyrB ATPase % Inhibition (compound concentration 12.5 μM, 12.5 µM) [%]"
"CCNC(=O)Nc1ccc(-c2cccc(CC(=O)O)c2)cn1 [Example 146, [3-(6-{[(ethylamino)carbonyl]amino}pyridin-3-yl)phenyl]acetic acid]",64.3,
"CCNC(=O)Nc1ccc(-c2nc(-c3ncnn3C)c(C(=O)O)s2)cn1 [Example 147, 2-(6-{[(ethylamino)carbonyl]amino}pyridin-3-yl)-4-(1-methyl-1H-1,2,4-triazol-5-yl)-1,3-thiazole-5-carboxylic acid]",,94.65
"CCNC(=O)Nc1ccc(-c2ccc3nc(C)c(C(=O)O)n3c2)cn1 [Example 148, 6-(6-{[(ethylamino)carbonyl]amino}pyridin-3-yl)-2-methylimidazo[1,2-a]pyridine-3-carboxylic acid]",94.2,
"CCNC(=O)Nc1ccc(-c2nc(C(=O)N(C)C)c(C(=O)O)s2)cn1 [Example 149, 4-[(dimethylamino)carbonyl]-2-(6-{[(ethylamino)carbonyl]amino}pyridin-3-yl)-1,3-thiazole-5-carboxylic acid]",97.5,
"CCCCNC(=O)c1nc(-c2cnc(NC(=O)NCC)cc2-c2nc(CC)cs2)sc1C(=O)O [Example 150, 4-[(butylamino)carbonyl]-2-[6-{[(ethylamino)carbonyl]amino}-4-(4-ethyl-1,3-thiazol-2-yl)pyridin-3-yl]-1,3-thiazole-5-carboxylic acid]",100,
"CCNC(=O)Nc1cccc(-c2cccc(C(N)=O)c2)n1 [Example 151, 3-(6-{[(ethylamino)carbonyl]amino}pyridin-2-yl)benzamide]",97.7,
"CCNC(=O)Nc1ccc(-c2nc(C(N)=O)c(C(N)=O)s2)cn1 [Example 152, 2-(6-{[(ethylamino)carbonyl]amino}pyridin-3-yl)-1,3-thiazole-4,5-dicarboxamide]",69.4,
"CCNC(=O)Nc1ccc(-c2nc(C(C)=O)c(C(=O)N(C)C)s2)cn1 [Example 153, 4-acetyl-2-(6-{[(ethylamino)carbonyl]amino}pyridin-3-yl)-N,N-dimethyl-1,3-thiazole-5-carboxamide]",71.4,
"CCNC(=O)Nc1ccc(-c2nc(C(C)=O)c(C(N)=O)s2)cn1 [Example 154, 4-acetyl-2-(6-{[(ethylamino)carbonyl]amino}pyridin-3-yl)-1,3-thiazole-5-carboxamide]",99.8,
"CCNC(=O)Nc1ccc(-c2ccc3nc(C)c(C(N)=O)n3c2)cn1 [Example 155, 6-(6-{[(ethylamino)carbonyl]amino}pyridin-3-yl)-2-methylimidazo[1,2-a]pyridine-3-carboxamide]",82.3,
"CCNC(=O)Nc1cccc(-c2cccc(C(=O)N(C)C)c2)n1 [Example 156, 3-(6-{[(ethylamino)carbonyl]amino}pyridin-2-yl)-N,N-dimethylbenzamide]",43,
"CCNC(=O)Nc1ccc(-c2nc(-c3ncnn3C)c(C(N)=O)s2)cn1 [Example 157, 2-(6-{[(ethylamino)carbonyl]amino}pyridin-3-yl)-4-(1-methyl-1H-1,2,4-triazol-5-yl)-1,3-thiazole-5-carboxamide]",101,
"CCCCNC(=O)c1sc(-c2ccc(NC(=O)NCC)nc2)nc1C(=O)N(C)C [Example 158, N^5-butyl-2-(6-{[(ethylamino)carbonyl]amino}pyridin-3-yl)-N^4,N^4-dimethyl-1,3-thiazole-4,5-dicarboxamide]",92.6,
"CCNC(=O)Nc1ccc(-c2nc(C(=O)N(C)C)c(C(=O)NC(C)(C)C)s2)cn1 [Example 159, N^5-(tert-butyl)-2-(6-{[(ethylamino)carbonyl]amino}pyridin-3-yl)-N^4,N^4-dimethyl-1,3-thiazole-4,5-dicarboxamide]",95.3,
"CCNC(=O)Nc1cc(-c2nc(CC)cs2)c(-c2cccc(C(=O)N(C)C)c2)cn1 [Example 160, 3-[6-{[(ethylamino)carbonyl]amino}-4-(4-ethyl-1,3-thiazol-2-yl)pyridin-3-yl]-N,N-dimethylbenzamide]",95.5,
"CCNC(=O)Nc1cc(-c2nc(CC)cs2)c(-c2cncc(C(=O)N(C)C)c2)cn1 [Example 161, 6′-{[(ethylamino)carbonyl]amino}-4′-(4-ethyl-1,3-thiazol-2-yl)-N,N-dimethyl-3,3′-bipyridine-5-carboxamide]",101,
"CCCCNC(=O)c1nc(-c2cnc(NC(=O)NCC)cc2-c2nc(CC)cs2)sc1C(=O)N(C)C [Example 162, N^4-butyl-2-[6-{[(ethylamino)carbonyl]amino}-4-(4-ethyl-1,3-thiazol-2-yl)pyridin-3-yl]-N~5~,N~5~-dimethyl-1,3-thiazole-4,5-dicarboxamide]",101,
"CCCCNC(=O)c1csc(-c2cnc(NC(=O)NCC)cc2-c2ccccc2)n1 [Example 163, N-butyl-2-(6-{[(ethylamino)carbonyl]amino}-4-phenylpyridin-3-yl)-1,3-thiazole-4-carboxamide]",97.8,
